Experimental data as given in patent publication US20100273748A1, “ANTIMICROBIAL THERAPY” (priority 2006, published 2010).

Key:
Staphylococcus aureus = test: Bacterial growth inhibition (turbidity OD600) with or without carbonate; assay type: cell-based; conditions: for inhibition of S. aureus growth: 32 μM LL-37
S. aureus [1] = test: Electron microscopy of bacterial cell wall lysis; assay type: cell-based
keratinocytes = test: Keratinocyte morphology, LDH release and Annexin V/propidium iodide staining; assay type: cell-based, human; conditions: 24 hours after butyrate alone or in combination with 1,25D3
[2] = system: Staphylococcus aureus mprF; test: Radial diffusion assay; assay type: cell-based
Procedure: Sweat collection and processing. Sweat was collected on paper tissues (Kimwipes, Kimberly-Clark, Ga.) from healthy volunteers after exercise. After collection, 20 ml of sweat was centrifuged at 2000 g for 15 min. at 4° C., filtered through a […] (Acrodisc syringe filter, 0.2 mm, low protein binding, Fisher scientific, Tustin, Calif.), and frozen at −80° C. For some experiments sweat was lyophilized to dryness, then suspended in 400 μl of distilled water (DW: cell culture grade, endotoxin free, GibcoBRL, Grand island, NY). For analysis of LL37 processing by sweat, 1.6 nmol of LL-37 synthetic peptide was incubated in 50 ml of sweat for 0, 1, 6, 24 hrs at 37° C. or 4° C. In some experiments proteinase inhibitors including; mixed protease inhibitor cocktail (1tab/10 ml, Roche, Indianapolis, Ind.), […] Bestatin, 10 mg/ml E-64, 10 mg/ml Aprotinin, (Sigma, St Louis, Mo.); 100 mM AEBSF, 100 mM Neutrophil elastase inhibitor (NEI) or 100 mM leukocyte elastase inhibitor (LEI) (Calbiochem, San Diego, Calif.) were added during incubation. After incubation, 2 ml was assayed by radial diffusion assay to determine antibacterial activity. For analysis by HPLC 32 nmoles LL-37 was incubated in 100u1. To control for potential contamination from paper tissues, parallel processing was done on tissues soaked in phosphate-buffered saline (PBS:137 mM NaCl, 2.7 mM KCL, 4.3 mM Na2HPO4-H2O, 1.4 mM KH2PO4, pH 7.4). No antimicrobial activity was detectable in these preparations. Protein concentrations were evaluated by BCA assay (protein assay reagent, Pierce, Rockford, Ill.) or Bradford protein assay (Bio-Rad, Hercules, Calif.) according to manufacture's instructions. Human tissue and blood collection was approved by the UCSD Human Research Protection Program.
Antimicrobial assays. For screening of antimicrobial activity of HPLC fractions, radial diffusion assay was used. Lyophilized HPLC fractions were dissolved in DW (GibcoBRL, Grand Island, N.Y.), and tested against Staphylococcus aureus mprF. Thin plates (1 mm) of 1% agarose in 0.5% tryptone containing approximately 1×10^6 cells/ml of S. aureus mprF were used. 1 mm wells were punched in the plates and […] of samples dissolved in tissue culture grade sterile water were loaded in each well.

neutrophil and mast cell = test: Neutrophil and mast cell chemotaxis; assay type: cell-based
FPRL-1 = target: T1, FPRL-1 (Homo sapiens, UniProt P25090); test: FPRL-1 binding
T1 sequence (P25090 1-351): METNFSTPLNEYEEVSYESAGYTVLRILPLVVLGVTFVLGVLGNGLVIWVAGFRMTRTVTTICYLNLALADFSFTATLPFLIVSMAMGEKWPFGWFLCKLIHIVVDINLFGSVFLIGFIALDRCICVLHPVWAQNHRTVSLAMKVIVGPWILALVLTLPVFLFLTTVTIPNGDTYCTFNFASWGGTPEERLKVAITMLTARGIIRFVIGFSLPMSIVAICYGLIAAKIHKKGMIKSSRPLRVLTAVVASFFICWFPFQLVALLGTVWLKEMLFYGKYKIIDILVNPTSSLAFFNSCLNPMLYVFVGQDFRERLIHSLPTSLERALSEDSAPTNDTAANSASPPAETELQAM

S. aureus [3] = test: Release of cytoplasmic-expressed beta-galactosidase (membrane disruption); assay type: cell-based; conditions: with versus without NaHCO3
Procedure: Release of cytoplasmic-expressed beta-galactosidase was measured from bacteria with and without the addition of NaHCO3.

[4] = system: wild-type S. aureus (clinical isolate); test: Radial diffusion assay; assay type: cell-based
IL-8 = IL-8 release from normal human keratinocytes (ELISA); assay type: cell-based
Procedure: Measurement of IL-8 release from keratinocytes Normal human keratinocytes (NHK) were cultured in EpiLife cell medium (Cascade Biologics, Portland, Oreg.) containing 0.06 mM Ca2+, 1× EpiLife-defined growth supplement (EDGS), 50 U/ml penicillin and […] streptomycin (Invitrogen, Carlsbad, Calif.). Keratinocytes were seeded in a 96-well plate and grown to confluence under standard tissue culture conditions. Cells were incubated with […] LL-37 or LL37-derived peptides (e.g., cathelicidin functional fragments) for 8 hours at 37° C. Supernatants were collected and stored at −20° C. overnight. IL-8 ELISA Assay was performed according to the manufacturer's instructions (BD OptEIA, Pharmingen, San Diego, Calif.). Supernatants were diluted 1:10 for assay. Simultaneously, LDH assays (Roche, Indianapolis, Ind.) were used to assess the cytotoxicity of peptides to keratinocytes. LDH release following peptide exposure was compared to release induced by 1% Triton X100.

dendritic cells = test: Pro-inflammatory chemokine release from dendritic cells; assay type: cell-based
CYP27B1 = test: qPCR of CYP27B1 mRNA in cultured keratinocytes; assay type: cell-based, human; conditions: 24 hours, TGF 1 μg/ml, TNFα 20 ng/ml, TLR2 ligand Malp-2
Procedure: Cell culture and stimuli. Human keratinocytes were grown in serum-free EpiLife® cell culture media (Cascade Biologics; Portland, Oreg.) containing 0.06 mM Ca2+ and 1× EpiLife® defined growth supplement (EDGS) at 37° C. under standard tissue culture conditions. Stock cultures were maintained for up to five passages in this media with the addition of 50 U/mL penicillin and 50 μg/mL streptomycin. HaCaT keratinocytes were cultured in DMEM (Sigma, St. Louis, Mo.) with 10% FCS. Cells at 50-70% confluence were stimulated in fresh medium after preincubation with 1,25(OH)2 vitamin D3 (1,25D3; 0.1-100 nM, 4-24 h; Sigma). Alternatively, NHEK were stimulated in the presence of 1,25D3 (0.1-100 nM). […]
Real-time RT-PCR (qPCR). […] Expression of cathelicidin and GAPDH was analysed by real-time RT-PCR. […] Fold induction relative to the vehicle treated control in in vitro experiments was calculated using the comparative Ct method, where ΔΔCt is ΔCt(stimulant)-ΔCt(vehicle), ΔCt is Ct(gene)-Ct(GAPDH) and Ct is the cycle at which an arbitrary detection threshold is crossed. For quantification of transcript abundance in tissue samples target gene expression was normalized to GAPDH and compared to non-treated or non-injured skin.

## O=C(O)O [NaHCO3]
Staphylococcus aureus; 25 mM NaHCO3, no peptide
  effect of NaHCO3 alone on bacterial growth: without effecting bacterial growth
Staphylococcus aureus; high concentrations of NaHCO3
  effect of NaHCO3 alone on bacterial growth: retarded the growth of S. aureus
Staphylococcus aureus; medium with 32 μM LL-37, pH 7.4, KHCO3 and Na2CO3 at 50 mM
  increase of LL-37 antimicrobial activity by carbonate containing compound: responsible for this increase
S. aureus [1]; 25 mm NaHCO3 alone
  bacterial cell wall damage (EM): no visible effect

## CCCC(=O)O [butyrate]
keratinocytes
  cell morphology, cell death or apoptosis: no change was seen in cell morphology, cell death or apoptosis

## LLGDFFRKSKEKIGKEFKRIVQRIKDFLRNLVPRTES [LL-37]
[2]; identical conditions in PBS or distilled water
  zone of inhibition after incubation of LL-37 in PBS or distilled water: did not affect activity
[2]; incubation at 37° C. in sweat
  zone of inhibition after incubation of LL-37 in sweat: increased the zone of inhibition and apparent antimicrobial activity
[2]; incubation in sweat at 4° C.
  zone of inhibition after incubation of LL-37 in sweat: did not occur at 4 °C
Staphylococcus aureus; TSB media alone, or with NaCl and FBS
  inhibition of S. aureus growth: inhibited Staphalococcus aureus growth poorly
Staphylococcus aureus; in the presence of MEM buffers
  inhibition of S. aureus growth: inhibition was greatly increased
Staphylococcus aureus; 32 μM LL-37 with 25 mM NaHCO3, pH 7.4
  growth of S. aureus: complete inhibition of bacterial growth
Staphylococcus aureus; 50 mM NaHCO3 or 50 mM glycine buffer at various pH
  antimicrobial activity of LL-37, bicarbonate versus pH: Only bicarbonate containing media was able to confer increased antimicrobial activity
Staphylococcus aureus; 20% TSB, 1 mM NaH2PO4, with or without 50 mM NaHCO3, pH 7.4
  change of minimal inhibitory concentration (MIC) by NaHCO3: greatly reduced
Neutrophil and mast cell
  neutrophil and mast cell chemotaxis: induces neutrophil and mast cell chemotaxis
FPRL-1
  binding to FPRL-1: bind FPRL-1
S. aureus [1]; 32 μM LL-37, absence of NaHCO3, four hours
  bacterial cell wall damage (EM): caused a small amount of damage to bacterial cell walls
S. aureus [1]; 32 μM LL-37 with 25 mM NaHCO3, four hours
  bacterial cell wall damage (EM): totally ablated them
S. aureus [3]
  leakage of cytoplasmic protein (beta-galactosidase): induces greater leakage of cytoplasmic protein with carbonate
[4]
  Radial Diffusion Assay, minimal inhibitory concentration (MIC), S. aureus (wt): 4 μm
IL-8
  pro-inflammatory release from keratinocytes: induces pro-inflammatory release
Dendritic cells
  pro-inflammatory chemokine release from dendritic cells: blocks pro-inflammatory chemokine release

## Polymyxin B
S. aureus [3]
  leakage of cytoplasmic protein (beta-galactosidase): induces greater leakage of cytoplasmic protein with carbonate

## TNFα
CYP27B1
  CYP27B1 expression: had no effect
